Structures can show the parent of a compound that is named as a salt. Where two headings read alike, the source gives them in different places.

Test [1] has as its target T1, hA3AR (Homo sapiens (Human), UniProt P0DMS8). Kind of test: FCM competitive binding in whole CHO cells using MRS5449 as tracer. As to conditions: whole CHO cells expressing hA3AR; 5 nM MRS5449 tracer; 90 min at 37° C. The method, then: Total binding was measured in the absence of the competitor.
At the end of each time interval, the medium was removed and cells were washed three times with ice-cold DPBS. After washing, 1 ml 0.2% EDTA solution was added to each well, and cells were incubated at 37° C. for 7 min. Following cell detachment, 1 ml medium was added to each well to neutralize the EDTA. The cell suspensions were transferred to polystyrene round-bottom BD Falcon tubes (BD, Franklin Lakes, N.J.) and centrifuged for 5 min at 23° C. and 400×g. After centrifugation, the supernatant was discarded, and cells were washed with 3 ml PBS and centrifuged again at 23° C. and 400×g for 5 min. After discarding the supernatant, cells were suspended in 0.5 ml PBS and analyzed by FCM.
The intensity of fluorescence emission of each sample was measured by using FCM. […] Samples were maintained in the dark during the analysis to avoid photobleaching. MFIs were obtained in the FL-1 channel in log mode. Ten thousand events were analyzed per sample.
Data analysis was performed with the Prism 5 (GraphPad, San Diego Calif.) software. The mean autofluorescence of CHO cells was measured in the absence of the fluorescent ligand.

Test [2] has as its target T1, hA3AR. As to conditions: Table 2; cell membrane preparations using [125I]-AB-MECA; reported literature values; read-out: hA3AR radioligand binding, Ki; cited from earlier work.

T1 sequence (P0DMS8 whole entry): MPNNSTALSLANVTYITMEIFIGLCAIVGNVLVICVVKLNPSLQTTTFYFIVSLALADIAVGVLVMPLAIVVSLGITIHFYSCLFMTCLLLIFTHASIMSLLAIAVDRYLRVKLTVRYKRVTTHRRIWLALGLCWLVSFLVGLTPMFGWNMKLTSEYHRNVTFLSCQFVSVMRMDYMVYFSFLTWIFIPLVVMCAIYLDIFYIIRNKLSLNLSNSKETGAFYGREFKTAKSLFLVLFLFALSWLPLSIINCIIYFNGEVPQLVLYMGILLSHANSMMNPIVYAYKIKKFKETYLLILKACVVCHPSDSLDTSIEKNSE

The Ki is the dissociation constant of the complex between target and ligand, obtained from inhibition or displacement. Regarding `CCC1CN2C(=O)N(C)c3nc(-c4cc(Cl)cc(Cl)c4Cl)[nH]c3C2=N1` (centres unmarked) [PSB-10, 8-ethyl-1,4,7,8-tetrahydro-4-methyl-2-(2,3,5-trichlorophenyl)-5H-imidazo[2,1-i]purin-5-one monohydrochloride], the Ki on hA3AR [1] was 9.54 ± 2.2 nM; at hA3AR [2], 0.441 nM.

The values are drawn from US9227979B2, “Fluorescent antagonists of the A3 adenosine receptor” (The United States of America, as represented by the …, priority 2012, dated 2016).
